Experimental data published in patent publication US20260256792A1, “TREATMENT OF CHRONIC SPONTANEOUS URTICARIA BY ADMINISTERING (R)-2-[3-[4-AMINO-3-(2-FLUORO-4-PHENOXY-PHENYL)PYRAZOLO[3,4-D]PYRIMIDIN-1-YL]PIPERIDINE-1-CARBONYL]-4-METHYL-4-[4-(OXETAN-3-YL)PIPERAZIN-1-YL]PENT-2-ENENITRILE” (priority 2023, published 2026).

Tested on: moderate-to-severe chronic spontaneous urticaria (CSU)
Test: Phase 2 CSU study: hives severity score over 7 days (HSS7)
Format: in vivo, human
Parameters: key to HSS7 Change from baseline, Median / HSS7, Median / HSS7, Max / HSS7 Change from baseline, Q1 / HSS7 Change from baseline, Q3 / HSS7 Change from baseline, Max: 7-day sum of daily hive scores, each 0 = none to 3 = >50 hives
Excerpt: The study comprises a 12 week, randomized, double-blind, placebo-controlled, multi-center, dose-ranging efficacy and safety phase, followed by a 40 week open label extension (OLE) phase (see FIG. 1).
The study consists of three phases and an optional OLE phase.
The UAS is a validated PRO measure. The daily UAS is the sum of the daily Hive Severity Score (HSS, ranging from 0=None to 3=more than 50 hives) and the daily Itch Severity Score (ISS, ranging from 0=None to 3=intense), the 2 key urticaria signs and symptoms which are wheals and itch. The daily UAS scores range from 0 to 6 point/day. Daily UAS scores are summed over 7-day period to create the UAS7, ranging from 0 to 42, and are composed of the HSS7 and ISS7 components. […] Patients were to complete the UAS using the e-diary. The e-diary was to be used once daily on the same time of each day recording of participant's answers to the urticaria activity score over 7 days (UAS7) questionnaire. For participants who entered the OLE phase, their answers to the UAS7 questionnaire were also to be collected from Week 20 to Week24 and from Week 48 to Week 52.
The following secondary endpoints were to be analyzed using the same approach as for the primary endpoint: • Change from baseline in UAS7 at Week 4 • Change from baseline in UAS7 at Week 12 (for US and US reference countries) • Change from baseline in ISS7 at Week 12 (except US and US reference countries) • Change from baseline in HSS7 at Week 12

[1] = Week 1, 400 mg BID, Omalizumab-Naïve Population
[2] = Week 1, 400 mg BID, Patients with Prior Omalizumab Use
[3] = Week 1, 400 mg QPM, Omalizumab-Naïve Population
[4] = Week 1, 400 mg QPM, Patients with Prior Omalizumab Use
[5] = Week 1, 400 mg TID, Omalizumab-Naïve Population
[6] = Week 1, 400 mg TID, Patients with Prior Omalizumab Use
[7] = Week 2, 400 mg BID, Omalizumab-Naïve Population
[8] = Week 2, 400 mg BID, Patients with Prior Omalizumab Use
[9] = Week 2, 400 mg QPM, Omalizumab-Naïve Population
[10] = Week 2, 400 mg QPM, Patients with Prior Omalizumab Use
[11] = Week 2, 400 mg TID, Omalizumab-Naïve Population
[12] = Week 2, 400 mg TID, Patients with Prior Omalizumab Use
[13] = Week 3, 400 mg BID, Omalizumab-Naïve Population
[14] = Week 3, 400 mg BID, Patients with Prior Omalizumab Use
[15] = Week 3, 400 mg QPM, Omalizumab-Naïve Population
[16] = Week 3, 400 mg QPM, Patients with Prior Omalizumab Use
[17] = Week 3, 400 mg TID, Omalizumab-Naïve Population
[18] = Week 3, 400 mg TID, Patients with Prior Omalizumab Use

## CC(C)(C=C(C#N)C(=O)N1CCC[C@@H](n2nc(-c3ccc(Oc4ccccc4)cc3F)c3c(N)ncnc32)C1)N1CCN(C2COC2)CC1 [rilzabrutinib, (R)-2-[3-[4-amino-3-(2-fluoro-4-phenoxy-phenyl)pyrazolo[3,4-d]pyrimidin-1-yl]piperidine-1-carbonyl]-4-methyl-4-[4-(oxetan-3-yl)piperazin-1-yl]pent-2-enenitrile]
Omalizumab-naïve Population, 400 mg TID, ANCOVA
  HSS7 change from baseline at Week 12, LS Mean Diff vs. placebo: −3.24
[1]
  HSS7, Mean (SD): 9.26 (5.76)
  HSS7 Change from baseline, Mean (SD): −5.02 (4.53)
  HSS7 Change from baseline, Median: −5.00
  HSS7 Percent change from baseline, Mean (SD): −36.53 (34.65) %
  HSS7 Percent change from baseline, Median: −28.57%
[2]
  HSS7, Mean (SD): 9.67 (6.41)
  HSS7 Change from baseline, Mean (SD): −5.50 (6.41)
  HSS7 Change from baseline, Median: −3.00
  HSS7 Percent change from baseline, Mean (SD): −34.45 (41.48) %
  HSS7 Percent change from baseline, Median: −17.65%
[3]
  HSS7, Mean (SD): 10.73 (4.90)
  HSS7 Change from baseline, Mean (SD): −4.00 (4.92)
  HSS7 Change from baseline, Median: −3.00
  HSS7 Percent change from baseline, Mean (SD): −25.31 (29.00) %
  HSS7 Percent change from baseline, Median: −20.00%
[4]
  HSS7, Mean (SD): 12.00 (NC)
  HSS7, Median: 12.00
  HSS7 Change from baseline, Mean (SD): −8.00 (NC)
  HSS7 Change from baseline, Median: −8.00
  HSS7 Percent change from baseline, Mean (SD): −40.00 (NC) %
  HSS7 Percent change from baseline, Median: −40.00%
[5]
  HSS7, Mean (SD): 8.26 (4.91)
  HSS7, Median: 8.00
  HSS7 Change from baseline, Mean (SD): −5.40 (5.44)
  HSS7 Change from baseline, Median: −5.00
  HSS7 Percent change from baseline, Mean (SD): −36.74 (35.15) %
  HSS7 Percent change from baseline, Median: −33.33%
[6]
  HSS7, Mean (SD): 4.83 (3.31)
  HSS7, Median: 4.50
  HSS7 Change from baseline, Mean (SD): −11.19 (4.74)
  HSS7 Percent change from baseline, Mean (SD): −70.33 (16.48) %
  HSS7 Percent change from baseline, Median: −71.43%
[7]
  HSS7, Mean (SD): 9.27 (5.49)
  HSS7, Median: 7.50
  HSS7 Change from baseline, Mean (SD): −5.10 (4.74)
  HSS7 Change from baseline, Median: 5.50
  HSS7 Percent change from baseline, Mean (SD): −35.29 (34.55) %
  HSS7 Percent change from baseline, Median: −37.50%
[8]
  HSS7, Mean (SD): 8.17 (7.08)
  HSS7, Median: 9.50
  HSS7 Change from baseline, Mean (SD): −7.00 (8.15)
  HSS7 Change from baseline, Median: −4.50
  HSS7 Percent change from baseline, Mean (SD): −42.16 (46.38) %
  HSS7 Percent change from baseline, Median: −26.47%
[9]
  HSS7, Mean (SD): 10.90 (4.97)
  HSS7 Change from baseline, Mean (SD): −3.83 (4.91)
  HSS7 Change from baseline, Median: 3.00
  HSS7 Percent change from baseline, Mean (SD): −23.50 (30.60) %
  HSS7 Percent change from baseline, Median: −21.43%
[10]
  HSS7, Mean (SD): 13.00 (NC)
  HSS7, Median: 13.00
  HSS7 Change from baseline, Mean (SD): −7.00 (NC)
  HSS7 Change from baseline, Median: −7.00
  HSS7 Percent change from baseline, Mean (SD): −35.00 (NC) %
  HSS7 Percent change from baseline, Median: −35.00%
[11]
  HSS7, Mean (SD): 7.25 (5.05)
  HSS7, Median: 7.00
  HSS7 Change from baseline, Mean (SD): −6.40 (5.94)
  HSS7 Change from baseline, Median: −6.00
  HSS7 Percent change from baseline, Mean (SD): −44.30 (37.78) %
  HSS7 Percent change from baseline, Median: −42.86%
[12]
  HSS7, Mean (SD): 2.83 (3.31)
  HSS7, Median: 1.50
  HSS7 Change from baseline, Mean (SD): −13.19 (5.74)
  HSS7 Change from baseline, Median: −14.00
  HSS7 Percent change from baseline, Mean (SD): -82.7%
  HSS7 Percent change from baseline, Median: −81.38%
[13]
  HSS7, Mean (SD): 8.55 (6.09)
  HSS7, Median: 7.00
  HSS7 Change from baseline, Mean (SD): −5.73 (5.31)
  HSS7 Change from baseline, Median: −5.00
  HSS7 Percent change from baseline, Mean (SD): −40.65 (36.39) %
  HSS7 Percent change from baseline, Median: −41.67%
[14]
  HSS7, Mean (SD): 7.67 (7.00)
  HSS7, Median: 7.50
  HSS7 Change from baseline, Mean (SD): −7.50 (8.22)
  HSS7 Change from baseline, Median: −6.00
  HSS7 Percent change from baseline, Mean (SD): −45.10 (46.71) %
  HSS7 Percent change from baseline, Median: −35.29%
[15]
  HSS7, Mean (SD): 10.41 (4.97)
  HSS7, Median: 9.00
  HSS7 Change from baseline, Mean (SD): −4.32 (4.60)
  HSS7 Change from baseline, Median: −2.00
  HSS7 Percent change from baseline, Mean (SD): −27.98 (28.68) %
  HSS7 Percent change from baseline, Median: −28.57%
[16]
  HSS7, Mean (SD): 10.00 (NC)
  HSS7 Change from baseline, Mean (SD): −10.00 (NC)
  HSS7 Change from baseline, Median: −10.00
  HSS7 Percent change from baseline, Mean (SD): −50.00 (NC) %
  HSS7 Percent change from baseline, Median: −50.00%
[17]
  HSS7, Mean (SD): 7.03 (4.82)
  HSS7, Median: 7.00
  HSS7 Change from baseline, Mean (SD): −6.63 (6.22)
  HSS7 Change from baseline, Median: −7.00
  HSS7 Percent change from baseline, Mean (SD): −47.46 (36.18) %
  HSS7 Percent change from baseline, Median: −48.81%
[18]
  HSS7, Mean (SD): 3.39 (2.63)
  HSS7, Median: 2.67
  HSS7 Change from baseline, Mean (SD): −12.64 (6.13)
  HSS7 Change from baseline, Median: −14.50
  HSS7 Percent change from baseline, Mean (SD): −76.71 (14.38) %
  HSS7 Percent change from baseline, Median: −71.43%
